# US6660910B1, “Selection marker” (Syngenta Mogen B.V., priority 1997, dated 2003)
# Assays:
# [1] = test system: non-morphogenic cell suspensions of Oryza sativa cv. IR 52; experiment: Rice transformation by particle gun with cyanamide or hygromycin selection; format: cell-based
# Protocol: Described below is the method used for transformation of non-morphogenic cell suspensions of Oryza sativa cv. IR 52 using a particle inflow gun (PIG) according to Finer et al. (Plant Cell Rep. 11, 323-328, 1992).
# A long-term, non-morphogenic suspension culture of Oryza sativa cv. IR 52 was subcultured in weekly intervals in liquid LS-4 (Linsmaier and Skoog, Physiol. Plant. 18, 100-127, 1962) medium and maintained on a rotary shaker (110 rpm) at 28° C. in the dark. (The contents of the LS-4 medium can be found in Table Z). 3-4 days after the last subculture 1.5 ml of this cell suspension (appro. 1.5×10^6 cells) were evenly spread on a filter paper (Whatman no 4) which was subsequently placed on solidified LS-4 medium and cultivated in the dark at 28° C. for 24 h and directly used for bombardment thereafter. For microprojectile bombardment a home-made particle inflow gun (PIG) according to Finer et al. (1992) was used. 300 μg tungsten particles coated with either pMOG 617 (35S-gus and 35S-hyg) or pMOG 873 (35S-cah) were loaded on a particle support. The particles were accelerated by a 2.5 bar helium pulse and had to pass a 500 μm metal stop screen, placed 2 cm under the particle support. The suspension cells were placed 15 cm under the particle support. The PIG was evacuated to 30 mbar before bombardment. After bombardment the cells were cultured at 28° C. in the dark for 3 days. Then the filters with the cells were transferred to solid LS-4 medium containing various concentrations of cyanamide or 50 mg/l hygromycinB (see table 6). The subculture was repeated every 9 days. Resistant microcalli that were visible after 4-6 weeks were transferred to fresh LS-4 medium containing the respective selective agent. From two experiments 7+41 calli transformed with pMOG617 were found resistant to hygromycin, while for the transformation with pMOG873 7 calli survived cyanamide 20 mg/l in the first experiment (results from the second experiment not yet available) and 0+4 calli remained viable on 40 mg/l cyanamide. […] The transgenic nature was confirmed by testing parts of the developing callus for the presence of the DNA in the callitransformed with pMOG873.
# [2] = test system: regenerable embryogenic suspension of Grand nain; experiment: Kill curves in banana (Musa); format: cell-based; conditions: for % Live cells as assessed by FDA: 21 days; for % Callus Growth: approximate visual estimate
# Protocol: To test the potential of cyanamide as a selection agent for transformation in banana two kill curves were set up with a regenerable embryogenic suspension of Grand nain 6 day old embryogenic suspension (Ed6b) cultures, subbed routinely in M2 2,4D liquid, containing 4.32 g/l MS salts, 45 g/l sucrose, standard 1×concn. MS vitamins, 100mg/l glutamine, 100 mg/l myo-inositol, 100 mg/l biotin, 100mg/l malt extract at pH 5.3 and added after autoclaving 1.2 mg/l 2,4-D and 0.8 mg/l picloram.
# Cultures were sieved (>250μ, <710μ) and aliquots of approx 50 μl sieved culture in 300μl volume of liquid were pipetted onto two kill curve media as detailed below (3 reps per plate). Culture growth and survival were monitored over the following 3 weeks and cell survival assessed after 21 days via FDA staining.
# Kill Curve Medium A : M2/MS/1.0 2,4-D (as M2/MS/2,4-D except only 1.0 mg/l 2,4-D, no picloram and +2.25 g/l gelrite): this medium promotes the rapid division and growth of embryogenic callus, but not embryos. Kill Curve Medium B : M2/SH/0.5Pic, 0.5 2,4-D (as M2/MS/2,4-D except only 0.5 mg/l 2,4-D and 0.5 mg/l picloram, SH salts (4.32 g/1) instead of MS, +2.25 g/l gelrite): This medium promotes the early development of embryos which can be matured and germinated by transfer to alternative media.
# Cyanamide was added to both media types, after autoclaving, to concentrations of 0,20,30,50,75,100,150 mg/l.
# [3] = Medium M2/MS/2,4-D, cyanamide 20 mg/l
# [4] = Medium M2/MS/2,4-D, cyanamide 30 mg/l
# [5] = Medium M2/MS/2,4-D, cyanamide 50 mg/l
# [6] = Medium M2/MS/2,4-D, cyanamide 75 mg/l
# [7] = Medium M2/MS/2,4-D, cyanamide 100 mg/l
# [8] = Medium M2/MS/2,4-D, cyanamide 150 mg/l
# [9] = Medium M2/SH/0.5Pic +0.5 2,4-D, cyanamide 20 mg/l
# [10] = Medium M2/SH/0.5Pic +0.5 2,4-D, cyanamide 30 mg/l
# [11] = Medium M2/SH/0.5Pic +0.5 2,4-D, cyanamide 50 mg/l
# [12] = Medium M2/SH/0.5Pic +0.5 2,4-D, cyanamide 75 mg/l
# [13] = Medium M2/SH/0.5Pic +0.5 2,4-D, cyanamide 150 mg/l
smiles,measurement,setting,value
N#CN [Cyanamide],Callus formation,[1]; 50 mg/l cyanamide or higher,No calli were formed
same,Calli that remained viable,"[1]; pMOG873 (35S-cah), 40 mg/l cyanamide, two experiments",0+4
same,Calli that survived,"[1]; pMOG873 (35S-cah), cyanamide 20 mg/l, first experiment",7
same,Surviving calli positive in a PCR experiment on the cah-gene,"[1]; pMOG873, 40 mg/l cyanamide",One of the 4
same,Concentration up to which there is no significant visual browning of cultures and release of phenolics,[2],> 75 mg/L
same,inhibition at 20 µg/mL,"[2]; 20 mg/l, read-out: Inhibition of the growth of embryogenic callus",40 to 50%
same,% Live cells as assessed by FDA,[2]; [3],60%
same,% Callus Growth,[2]; [3],+30%
same,% Live cells as assessed by FDA,[2]; [4],50%
same,% Callus Growth,[2]; [4],+20%
same,% Live cells as assessed by FDA,[2]; [5],20%
same,% Callus Growth,[2]; [5],0%
same,% Live cells as assessed by FDA,[2]; [6],10%
same,% Callus Growth,[2]; [6],0%
same,% Live cells as assessed by FDA,[2]; [7],10%
same,% Callus Growth,[2]; [7],0%
same,% Live cells as assessed by FDA,[2]; [8],0%
same,% Callus Growth,[2]; [8],0%
same,Embryos Formed (average),[2]; [9],0
same,% Live cells as assessed by FDA,[2]; [9],50%
same,Embryos Formed (average),[2]; [10],0
same,% Live cells as assessed by FDA,[2]; [10],40%
same,Embryos Formed (average),[2]; [11],0
same,% Live cells as assessed by FDA,[2]; [11],30%
same,Embryos Formed (average),[2]; [12],0
same,% Live cells as assessed by FDA,[2]; [12],20%
same,Embryos Formed (average),"[2]; Medium M2/SH/0.5Pic +0.5 2,4-D, cyanamide 100 mg/l",0
same,Embryos Formed (average),[2]; [13],0
same,% Live cells as assessed by FDA,[2]; [13],0%
same,Embryogenesis,[2]; lowest concentration tested (20 mg/l),totally inhibited
